Like-named read-outs stand apart in the source and are kept apart here. Peptide text beside a SMILES is read from it. * marks the point of attachment. Hydrocinnamoyl = O=C(CCc1ccccc1)*
Tests used:
human plasmin = human plasmin (Homo sapiens, UniProt P00747); experiment: Plasmin assay, chromogenic substrate S-2251; format: biochemical; conditions: purified human enzyme 1.0 nM, 30 minute incubation, substrate 300 μM, HBSA pH 7.5
Method: The buffer used for all assays was HBSA (10 mM HEPES, pH 7.5, 150 mM sodium chloride, 0.1% bovine serum albumin). […] Following a 30 minute incubation at ambient temperature, 50 μL of the substrate at the concentrations specified below, was added to the wells yielding a final total volume of 200 μL. The initial velocity of chromogenic substrate hydrolysis was measured by the change in absorbance at 405 nm using a Thermo Max® Kinetic Microplate Reader over a 5 minute period in which less than 5% of the added substrate was utilized.
Plasmin catalytic activity was determined using the chromogenic substrate, S-2251 [D-valyl-L-leucyl-L-lysine-p-nitroanilide dihydrochloride], which was obtained from Kabi Diagnostica.

human α-thrombin = human α-thrombin (Homo sapiens, UniProt P00734); experiment: Thrombin assay, chromogenic substrate Pefachrome t-PA; format: biochemical; conditions: purified human enzyme 0.25 nM, 30 minute incubation, substrate 300 μM, HBSA pH 7.5
Method: (§1) The buffer used for all assays was HBSA (10 mM HEPES, pH 7.5, 150 mM sodium chloride, 0.1% bovine serum albumin). […] Following a 30 minute incubation at ambient temperature, 50 μL of the substrate at the concentrations specified below, was added to the wells yielding a final total volume of 200 μL.
Thrombin catalytic activity was determined using the chromogenic substrate Pefachrome t-PA (CH3 SO2 -D-hexahydrotyrosine-glycyl-L-arginine-p-nitroaniline, obtained from Pentapharm Ltd.).

Human factor Xa = target: T1, Human factor Xa (Homo sapiens, UniProt P00742); experiment: Factor Xa assay, chromogenic substrate S2765; format: biochemical; conditions: purified human enzyme 0.5 nM, 30 minute incubation, substrate 250 μM, HBSA pH 7.5
T1 construct: Human factor Xa was prepared from purified human factor X obtained from Enzyme Research Laboratories; purchased Enzyme Research Laboratories
T1 sequence (P00742 235-488 limits assumed): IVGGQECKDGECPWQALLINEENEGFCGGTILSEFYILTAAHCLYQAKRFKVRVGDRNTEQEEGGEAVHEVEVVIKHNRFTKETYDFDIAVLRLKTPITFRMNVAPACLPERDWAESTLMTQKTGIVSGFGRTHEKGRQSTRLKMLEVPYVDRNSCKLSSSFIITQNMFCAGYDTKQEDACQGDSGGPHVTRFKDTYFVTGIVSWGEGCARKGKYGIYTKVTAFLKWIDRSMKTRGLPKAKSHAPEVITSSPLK
T1 sequence (P00742 41-179 partner limits assumed): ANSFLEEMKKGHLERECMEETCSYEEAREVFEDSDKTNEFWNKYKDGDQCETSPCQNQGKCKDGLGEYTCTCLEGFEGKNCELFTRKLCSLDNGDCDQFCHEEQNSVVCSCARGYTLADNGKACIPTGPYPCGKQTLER
Method: as §1, with “μL. The initial velocity of chromogenic substrate hydrolysis was measured by the change in absorbance at 405 nm using a Thermo Max® Kinetic Microplate Reader over a 5 minute period in which less than 5% of the added substrate was utilized.” for “μL.”
Factor Xa catalytic activity was determined using the substrate, S2765 (N-α-benzyloxycarbonyl-D-argininyl-L-glycyl-L-arginine-p-nitroanilide dihydrochloride) which was obtained from Kabi Diagnostica. […] Human factor Xa was prepared from purified human factor X obtained from Enzyme Research Laboratories according to the method described by Bock, P. E. et al., Archives of Biochem. Biophys. 273: 375 (1989). The enzyme was diluted into HBSA prior to the assay in which the final concentration was 0.5 nM.

[1] = system: FeCl3-induced platelet-dependent arterial thrombosis; format: in vivo, rat; conditions: for Clot Size: mean ± S.E.M.
Excerpt: Res., 60: 269-280 (1990). […] Res., 60: 269-280 (1990). […] The animals were then euthanized.

human plasmin, sequence (P00747 581-810 limits assumed): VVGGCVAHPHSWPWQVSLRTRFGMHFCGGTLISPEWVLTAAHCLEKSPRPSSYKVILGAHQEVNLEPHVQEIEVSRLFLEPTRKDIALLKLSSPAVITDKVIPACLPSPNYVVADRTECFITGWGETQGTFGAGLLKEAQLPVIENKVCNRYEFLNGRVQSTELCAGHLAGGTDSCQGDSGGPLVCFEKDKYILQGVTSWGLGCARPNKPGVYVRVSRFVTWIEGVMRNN
human plasmin, sequence (P00747 97-580 partner limits assumed): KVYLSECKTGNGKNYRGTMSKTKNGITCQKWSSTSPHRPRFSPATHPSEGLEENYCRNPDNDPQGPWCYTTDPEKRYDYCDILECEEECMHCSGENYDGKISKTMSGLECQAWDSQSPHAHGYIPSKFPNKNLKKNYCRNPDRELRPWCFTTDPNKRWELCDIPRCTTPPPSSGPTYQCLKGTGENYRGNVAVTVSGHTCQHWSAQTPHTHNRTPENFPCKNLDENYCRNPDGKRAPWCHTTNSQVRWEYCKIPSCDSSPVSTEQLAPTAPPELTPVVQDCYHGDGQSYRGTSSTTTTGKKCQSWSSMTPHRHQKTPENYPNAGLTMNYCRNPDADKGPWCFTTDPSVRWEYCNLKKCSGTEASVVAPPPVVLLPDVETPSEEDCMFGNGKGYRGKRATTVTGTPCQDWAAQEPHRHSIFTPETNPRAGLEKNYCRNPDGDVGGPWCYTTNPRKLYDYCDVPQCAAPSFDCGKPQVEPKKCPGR

Structure (SMILES) | IC50 (human plasmin) [nM] | IC50 (human α-thrombin) [nM] | IC50 (Human factor Xa) [nM] | Clot Size ([1]; Group 1, 25 μg/kg/min i.v. infusion) [%] | Clot Size ([1]; Group 2, 50 μg/kg/min i.v. infusion) [%] | Clot Size ([1]; Group 3, 100 μg/kg/min i.v. infusion) [%] | Efficacy as an antithrombotic agent (in words) ([1]; rat FeCl3 model, i.v. infusion)
CC(C)CCC(=O)NC(Cc1nnn[nH]1)C(=O)N1CCC[C@H]1C(=O)N[C@H](C=O)CCCNC(=N)N (stereo partly drawn) [4MeV-Ala(Tzl)-Pro-Arg-al, 3-tetrazolyl-2-(4-methylvaleroylamido) propionyl-L-prolyl-L-argininal] | 500 | – | – | – | – | – | –
N=C(N)NCCC[C@@H](C=O)NC(=O)[C@@H]1CCCN1C(=O)[C@H](CC(=O)O)NC(=O)CCc1ccccc1 [HCA-Asp-Pro-Arg-al, N-(3-phenylpropionyl)-L-aspartyl-L-prolyl-L-argininal] (Hydrocinnamoyl-Asp-Pro-Arg-aldehyde) | – | 92 | 52 | 48.38 ± 24.71 | 22.38 ± 21.0 | 3.38 ± 5.44 | reduction in the incidence of occlusion and in clot size
CC(C)CCC(=O)N[C@@H](CC(=O)O)C(=O)N1CCC[C@H]1C(=O)N[C@H](C=O)CCCNC(=N)N [4MeV-Asp-Pro-Arg-al, N-(4-methylpentanoyl)-L-aspartyl-L-prolyl-L-argininal] | – | 139 | 74 | – | – | – | –
CCCC(CCC)C(=O)N[C@@H](CC(=O)O)C(=O)N1CCC[C@H]1C(=O)N[C@H](C=O)CCCNC(=N)N [2PrPent-Asp-Pro-Arg-al, N-(2-propylpentanoyl)-L-aspartyl-L-prolyl-L-argininal] | – | 6.2 | 241 | – | – | – | –
N=C(N)NCCC[C@@H](C=O)NC(=O)[C@@H]1CCCN1C(=O)[C@H](CC(=O)O)NC(=O)CCC1CCCCC1 [ChxPA-Asp-Pro-Arg-al, N-(3-cyclohexanepropionyl)-L-aspartyl-L-prolyl-L-argininal] | – | 41 | 24 | – | – | – | –

From US5886146A, “Inhibitors of thrombosis” (Corvas International, Inc., priority 1995, dated 1999)
